Drawing on ChEMBL document CHEMBL5649166, “RIP3 induces apoptosis independent of pronecrotic kinase activity” (Mol Cell, 2014), this text covers Activity and residual activity for three compounds.

The test system of series [1] is MEF. Nature of the series: Induction of apoptosis in RIP3-/- MEF cells transfected with human RIP3mutRHIM incubated for 18 hrs by Cell Titer-Glo luminescent cell viability assay. The format is toxicity, cell-based. Conditions: mouse. Background: ATP-based viability assays read luminescence as a measure of living cells.
The target in series [2] is Serine/threonine-protein kinase PLK2 (Homo sapiens) (UniProt Q9NYY3). As to the kind of experiment: Inhibition of human PLK2 using casein as substrate at 1 uM in presence of 32P-ATP by Hotspot assay relative to control; values are per cent of control.
Series [3] concerns the target T1, Mitogen-activated protein kinase kinase kinase 7 (Homo sapiens) (UniProt O43318).
T1 sequence (whole entry): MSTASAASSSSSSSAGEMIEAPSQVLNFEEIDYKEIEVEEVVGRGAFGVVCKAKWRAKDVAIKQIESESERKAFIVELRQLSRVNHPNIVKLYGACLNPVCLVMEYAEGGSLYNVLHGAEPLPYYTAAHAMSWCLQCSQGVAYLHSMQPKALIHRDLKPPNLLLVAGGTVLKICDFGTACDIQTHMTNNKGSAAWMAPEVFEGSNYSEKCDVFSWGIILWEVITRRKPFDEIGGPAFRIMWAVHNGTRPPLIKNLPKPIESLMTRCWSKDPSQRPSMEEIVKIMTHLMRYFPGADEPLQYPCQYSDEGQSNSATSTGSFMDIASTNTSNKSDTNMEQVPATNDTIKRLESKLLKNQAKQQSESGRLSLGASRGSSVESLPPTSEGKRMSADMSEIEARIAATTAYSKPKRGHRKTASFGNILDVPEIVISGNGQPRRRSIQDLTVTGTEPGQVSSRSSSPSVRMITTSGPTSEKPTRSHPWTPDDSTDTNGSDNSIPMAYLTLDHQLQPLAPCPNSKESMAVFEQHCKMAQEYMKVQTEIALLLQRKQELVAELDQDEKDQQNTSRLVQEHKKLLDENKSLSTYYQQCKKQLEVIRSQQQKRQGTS
As to the kind of experiment: Inhibition of human TAK1 using casein as substrate at 1 uM in presence of 32P-ATP by Hotspot assay relative to control; values are per cent of control.

The target of series [4] is T2, cAMP-dependent protein kinase catalytic subunit PRKX (Homo sapiens) (UniProt P51817).
T2 sequence (whole entry): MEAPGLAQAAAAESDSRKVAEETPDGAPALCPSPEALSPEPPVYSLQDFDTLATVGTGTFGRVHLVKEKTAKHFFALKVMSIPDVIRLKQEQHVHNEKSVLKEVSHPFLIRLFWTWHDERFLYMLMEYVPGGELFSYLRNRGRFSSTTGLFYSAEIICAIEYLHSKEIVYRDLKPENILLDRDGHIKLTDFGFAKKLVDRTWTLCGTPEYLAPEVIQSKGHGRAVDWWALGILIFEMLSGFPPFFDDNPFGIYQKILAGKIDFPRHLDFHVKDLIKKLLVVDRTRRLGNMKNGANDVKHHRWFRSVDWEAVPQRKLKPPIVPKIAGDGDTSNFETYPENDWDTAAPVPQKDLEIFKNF
As to the kind of experiment: Inhibition of human PRKX using LRRASLG as substrate at 1 uM in presence of 32P-ATP by Hotspot assay relative to control; values are per cent of control.

Series [5] deals with T3, Phosphorylase b kinase gamma catalytic chain, liver/testis isoform (Homo sapiens) (UniProt P15735).
T3 sequence (whole entry): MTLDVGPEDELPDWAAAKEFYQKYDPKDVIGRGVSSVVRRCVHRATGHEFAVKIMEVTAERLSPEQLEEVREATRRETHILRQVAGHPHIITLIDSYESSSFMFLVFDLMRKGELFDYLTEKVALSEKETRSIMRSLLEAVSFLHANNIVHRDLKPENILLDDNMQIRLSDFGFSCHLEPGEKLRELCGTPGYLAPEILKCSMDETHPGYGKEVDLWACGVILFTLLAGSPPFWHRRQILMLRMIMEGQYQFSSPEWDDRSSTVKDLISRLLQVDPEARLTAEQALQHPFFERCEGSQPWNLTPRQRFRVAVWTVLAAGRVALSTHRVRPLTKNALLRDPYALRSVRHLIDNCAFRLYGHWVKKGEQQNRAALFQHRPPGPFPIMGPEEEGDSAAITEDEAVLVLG
As to the kind of experiment: Inhibition of human PHKg2 using KKLNRTLSFAEPG as substrate at 1 uM in presence of 32P-ATP by Hotspot assay relative to control; values are per cent of control.

Series [6] addresses RAC-gamma serine/threonine-protein kinase (Homo sapiens) (UniProt Q9Y243). As to the kind of experiment: Inhibition of human AKT3 using KGSGSGRPRTSSFAEG as substrate at 1 uM in presence of 32P-ATP by Hotspot assay relative to control; values are per cent of control.
The target in series [7] is Death-associated protein kinase 3 (Homo sapiens) (UniProt O43293). As to the kind of experiment: Inhibition of human ZIPK/DAPK3 using KKLNRTLSFAEPG as substrate at 1 uM in presence of 32P-ATP by Hotspot assay relative to control; values are per cent of control.
The target in series [8] is Ephrin type-A receptor 7 (Homo sapiens) (UniProt Q15375). Nature of the series: Inhibition of human EPHA7 using poly[Glu:Tyr] (4:1) as substrate at 1 uM in presence of 32P-ATP by Hotspot assay relative to control; values are per cent of control.
The target of series [9] is Serine/threonine-protein kinase 26 (Homo sapiens) (UniProt Q9P289). As to the kind of experiment: Inhibition of human MST4 using myelin basic protein as substrate at 1 uM in presence of 32P-ATP by Hotspot assay relative to control; values are per cent of control.
For series [10], the target named is Calcium/calmodulin-dependent protein kinase kinase 1 (Homo sapiens) (UniProt Q8N5S9). As to the kind of experiment: Inhibition of human CAMKK1 using myelin basic protein as substrate at 1 uM in presence of 32P-ATP by Hotspot assay relative to control; values are per cent of control.
Chain of Calcium/calmodulin-dependent protein kinase kinase 1 (Homo sapiens) (Q8N5S9 whole entry, looked up): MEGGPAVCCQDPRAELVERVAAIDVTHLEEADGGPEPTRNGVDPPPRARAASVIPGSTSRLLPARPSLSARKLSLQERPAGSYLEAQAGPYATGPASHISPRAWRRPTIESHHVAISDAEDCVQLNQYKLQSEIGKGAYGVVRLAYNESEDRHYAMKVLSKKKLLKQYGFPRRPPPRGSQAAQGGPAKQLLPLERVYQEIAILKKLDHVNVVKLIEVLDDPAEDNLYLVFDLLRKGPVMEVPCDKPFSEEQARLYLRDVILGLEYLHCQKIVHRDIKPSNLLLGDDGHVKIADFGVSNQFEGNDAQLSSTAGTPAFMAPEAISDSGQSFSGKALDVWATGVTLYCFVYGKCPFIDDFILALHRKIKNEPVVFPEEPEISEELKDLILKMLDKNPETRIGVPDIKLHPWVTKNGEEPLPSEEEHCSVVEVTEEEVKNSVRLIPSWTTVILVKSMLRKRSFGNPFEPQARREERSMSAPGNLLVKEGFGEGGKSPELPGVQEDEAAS

Chain of Ephrin type-A receptor 7 (Homo sapiens) (Q15375 28-998 limits assumed): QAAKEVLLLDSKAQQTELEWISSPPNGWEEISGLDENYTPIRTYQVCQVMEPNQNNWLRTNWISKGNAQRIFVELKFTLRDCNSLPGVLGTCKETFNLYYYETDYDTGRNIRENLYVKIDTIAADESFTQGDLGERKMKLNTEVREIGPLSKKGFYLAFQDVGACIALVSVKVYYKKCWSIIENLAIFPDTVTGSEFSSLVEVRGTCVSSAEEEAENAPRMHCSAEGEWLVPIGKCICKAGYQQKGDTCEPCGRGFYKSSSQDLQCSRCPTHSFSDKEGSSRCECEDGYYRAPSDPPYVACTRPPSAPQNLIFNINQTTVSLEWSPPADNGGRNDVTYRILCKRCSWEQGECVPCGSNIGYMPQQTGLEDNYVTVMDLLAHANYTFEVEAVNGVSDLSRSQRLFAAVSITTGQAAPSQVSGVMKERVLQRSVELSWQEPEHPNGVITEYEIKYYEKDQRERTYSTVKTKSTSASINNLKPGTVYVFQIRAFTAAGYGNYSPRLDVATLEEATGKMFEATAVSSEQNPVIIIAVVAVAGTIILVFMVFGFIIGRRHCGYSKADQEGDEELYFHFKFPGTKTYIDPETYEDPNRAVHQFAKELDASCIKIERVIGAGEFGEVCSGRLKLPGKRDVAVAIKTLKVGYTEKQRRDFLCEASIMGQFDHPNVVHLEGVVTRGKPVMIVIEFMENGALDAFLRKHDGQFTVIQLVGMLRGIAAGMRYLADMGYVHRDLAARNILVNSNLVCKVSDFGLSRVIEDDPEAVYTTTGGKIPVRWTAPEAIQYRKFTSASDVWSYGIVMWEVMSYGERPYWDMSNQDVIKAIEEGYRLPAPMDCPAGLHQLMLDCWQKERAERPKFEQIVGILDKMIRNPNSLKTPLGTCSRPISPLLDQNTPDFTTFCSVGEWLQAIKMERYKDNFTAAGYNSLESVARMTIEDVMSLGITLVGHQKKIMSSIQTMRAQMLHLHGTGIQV
Chain of RAC-gamma serine/threonine-protein kinase (Homo sapiens) (Q9Y243 whole entry): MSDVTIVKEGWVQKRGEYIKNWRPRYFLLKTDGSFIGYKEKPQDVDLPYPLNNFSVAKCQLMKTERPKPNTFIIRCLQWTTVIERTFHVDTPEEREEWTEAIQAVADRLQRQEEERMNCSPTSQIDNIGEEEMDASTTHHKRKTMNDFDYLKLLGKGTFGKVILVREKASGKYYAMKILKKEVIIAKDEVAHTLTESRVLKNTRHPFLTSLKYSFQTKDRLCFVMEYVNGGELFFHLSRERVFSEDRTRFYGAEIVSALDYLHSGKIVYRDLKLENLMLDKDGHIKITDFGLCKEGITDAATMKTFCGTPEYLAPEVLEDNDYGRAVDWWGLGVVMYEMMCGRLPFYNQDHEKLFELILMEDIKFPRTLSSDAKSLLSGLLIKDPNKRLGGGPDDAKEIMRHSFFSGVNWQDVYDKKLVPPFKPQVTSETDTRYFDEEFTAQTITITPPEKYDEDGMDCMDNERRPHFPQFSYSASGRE
Chain of Serine/threonine-protein kinase 26 (Homo sapiens) (Q9P289 2-416 limits assumed): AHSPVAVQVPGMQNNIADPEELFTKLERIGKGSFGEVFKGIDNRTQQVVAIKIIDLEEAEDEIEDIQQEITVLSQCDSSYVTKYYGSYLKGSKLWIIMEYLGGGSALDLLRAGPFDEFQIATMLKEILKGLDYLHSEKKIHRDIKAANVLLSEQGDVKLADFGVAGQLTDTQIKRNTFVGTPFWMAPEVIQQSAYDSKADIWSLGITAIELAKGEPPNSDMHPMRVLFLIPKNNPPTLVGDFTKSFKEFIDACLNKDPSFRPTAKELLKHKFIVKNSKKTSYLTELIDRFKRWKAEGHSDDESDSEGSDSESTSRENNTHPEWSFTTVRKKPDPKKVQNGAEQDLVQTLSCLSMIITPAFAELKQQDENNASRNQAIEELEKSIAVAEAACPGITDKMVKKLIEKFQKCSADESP
Chain of Death-associated protein kinase 3 (Homo sapiens) (O43293 whole entry, looked up): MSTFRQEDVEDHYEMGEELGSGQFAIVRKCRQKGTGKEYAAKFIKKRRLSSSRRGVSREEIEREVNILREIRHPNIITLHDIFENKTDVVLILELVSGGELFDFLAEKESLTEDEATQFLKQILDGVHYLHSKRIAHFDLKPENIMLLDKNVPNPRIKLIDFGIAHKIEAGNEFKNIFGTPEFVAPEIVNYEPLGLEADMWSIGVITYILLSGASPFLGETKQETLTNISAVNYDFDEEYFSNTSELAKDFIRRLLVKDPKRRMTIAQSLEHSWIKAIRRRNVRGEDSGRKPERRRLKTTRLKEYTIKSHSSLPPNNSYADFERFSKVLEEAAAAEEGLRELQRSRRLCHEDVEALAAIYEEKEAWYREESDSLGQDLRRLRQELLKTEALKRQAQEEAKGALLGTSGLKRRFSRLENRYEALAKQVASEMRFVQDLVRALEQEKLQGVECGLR
Chain of Serine/threonine-protein kinase PLK2 (Homo sapiens) (Q9NYY3 whole entry, looked up): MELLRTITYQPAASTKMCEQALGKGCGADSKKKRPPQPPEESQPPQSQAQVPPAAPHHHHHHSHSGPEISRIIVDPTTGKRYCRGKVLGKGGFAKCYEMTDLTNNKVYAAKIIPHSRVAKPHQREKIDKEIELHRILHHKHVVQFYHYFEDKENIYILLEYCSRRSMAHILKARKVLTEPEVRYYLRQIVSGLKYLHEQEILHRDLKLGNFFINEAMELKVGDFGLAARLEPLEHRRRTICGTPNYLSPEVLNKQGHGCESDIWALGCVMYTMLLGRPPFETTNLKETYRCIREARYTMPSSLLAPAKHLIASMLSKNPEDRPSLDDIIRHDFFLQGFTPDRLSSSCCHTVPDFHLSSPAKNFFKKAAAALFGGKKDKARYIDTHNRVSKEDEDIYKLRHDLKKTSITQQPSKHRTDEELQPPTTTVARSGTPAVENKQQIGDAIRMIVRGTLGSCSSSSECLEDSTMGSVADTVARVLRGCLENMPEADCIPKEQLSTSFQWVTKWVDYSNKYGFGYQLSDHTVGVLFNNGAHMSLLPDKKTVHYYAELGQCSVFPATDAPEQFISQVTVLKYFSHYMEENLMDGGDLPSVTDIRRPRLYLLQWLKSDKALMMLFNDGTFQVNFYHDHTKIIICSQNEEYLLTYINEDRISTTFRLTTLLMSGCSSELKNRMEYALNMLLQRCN

Take `CC(C)S(=O)(=O)c1ccc2nccc(Nc3ccc4scnc4c3)c2c1`: the Activity result in series [1] is given as “Non-Toxic”. In addition, the residual activity is 94.7% in series [2]; 97.6% in [3]; 101% in series [4]; 98.2% in series [5]; 94.3% in [6]; 102% in series [7]. Moreover, the residual activity in series [8] came to 90.8%; in [9], 95.9%; in [10], 99.3%.
As to `CNC(=O)c1ccc2c(c1)ncn2-c1ccc(CC(=O)OC(C)(C)C)cc1`, in series [1], the Activity result is reported as “Non-Toxic”. Also, the residual activity turned out to be 99.1% in series [2]; 106% in series [3]; 93.6% in series [4]; 100% in [5]; 98.4% in [6]; 96.8% in series [7]. Further, the residual activity in [8] is 87.8%; in [9], 97.5%; in series [10] it was 77.3%.
Take `Cc1cc(-c2cnc(N)c3c(-c4ccc5scnc5c4)csc23)n(C)n1`: the Activity entry in series [1] is on record as “Non-Toxic”. Also, the residual activity was 106% in [2]; 96.2% in series [3]; 94.2% in [4]; 95.4% in series [5]; 96.1% in [6]; 91.3% in series [7]. Besides, the residual activity came to 101% in series [8], 93.5% in [9] and 98.6% in series [10].
